Literature values, collected in patent US11766470B2, “Manufacture, formulation and dosing of apraglutide” (VectivBio AG, priority 2020, dated 2023).
Where two headings read alike, the source gives them in different places.

What was measured:
[1] = dosed once daily; cited from earlier work
[2] = cited from earlier work
[3] = cited from earlier work; remark: listed apart in the source

In the case of CC[C@H](C)[C@H](NC(=O)[C@H](Cc1ccccc1)NC(=O)[C@H](CC(=O)O)NC(=O)[C@H](CCCNC(=N)N)NC(=O)[C@H](C)NC(=O)[C@H](C)NC(=O)[C@H](CC(C)C)NC(=O)[C@H](CC(N)=O)NC(=O)[C@H](CC(=O)O)NC(=O)[C@H](CC(C)C)NC(=O)[C@@H](NC(=O)[C@@H](NC(=O)[C@H](CC(N)=O)NC(=O)[C@H](CCSC)NC(=O)[C@H](CCC(=O)O)NC(=O)[C@H](CC(=O)O)NC(=O)[C@H](CO)NC(=O)[C@H](Cc1ccccc1)NC(=O)[C@H](CO)NC(=O)CNC(=O)[C@H](CC(=O)O)NC(=O)CNC(=O)[C@@H](N)Cc1c[nH]cn1)[C@@H](C)O)[C@@H](C)CC)C(=O)N[C@@H](CC(N)=O)C(=O)N[C@@H](Cc1c[nH]c2ccccc12)C(=O)N[C@@H](CC(C)C)C(=O)N[C@H](C(=O)N[C@@H](CCC(N)=O)C(=O)N[C@H](C(=O)N[C@@H](CCCCN)C(=O)N[C@H](C(=O)N[C@H](C(=O)N[C@@H](CC(=O)O)C(=O)O)[C@@H](C)O)[C@@H](C)CC)[C@@H](C)O)[C@@H](C)CC [teduglutide], the “Change from baseline increase in urinary input” value [1] is given as 139.3%, the “Change in baseline in energy absorption” value [1] is given as 792 kJ/day and the “Change in baseline in wet weight absorption” value [1] is given as 743 g/day.

In the case of “Glucagon-like peptide 2 [GLP-2, reference compound]”, the “Half-life t½” value [2] is listed as 10 min.

In the case of glepaglutide, the “Change from baseline increase in urinary output” value ([3]; 0.1 mg dose once daily) is given as 111%, the “Change in baseline in energy absorption” value ([3]; 0.1 mg dose once daily) is given as -377 kJ/day and the “Change in baseline in wet weight absorption” value ([3]; 0.1 mg dose once daily) is given as -211 g/day. For the same molecule, the “Change from baseline increase in urinary output” value ([3]; 1.0 mg dose once daily) was 140%, the “Change in baseline in energy absorption” value ([3]; 1.0 mg dose once daily) was 435 kJ/day and the “Change in baseline in wet weight absorption” value ([3]; 1.0 mg dose once daily) was 650 g/day. For the same molecule, the “Change from baseline increase in urinary output” value ([3]; 10 mg dose once daily) was 132%, the “Change in baseline in energy absorption” value ([3]; 10 mg dose once daily) was 588 kJ/day and the “Change in baseline in wet weight absorption” value ([3]; 10 mg dose once daily) was 786 g/day.
